Our source for the IC50, DC50 and Dmax values is EP4763839A1 (Pamplona Therapeutics (Shenzhen) Co., Ltd., priority 2023, dated 2025).

Counter-ions that a name gives are not always drawn. Like-named read-outs stand apart in the source and are kept apart here.

By IC50 is commonly meant the concentration at which inhibition is half-maximal. One may read the DC50 as the concentration giving 50% degradation. The Dmax is the greatest extent of degradation seen.

For assay [1], the target named is T1, IRAK4 (Homo sapiens, UniProt Q9NWZ3).
T1 sequence (Q9NWZ3 1-460): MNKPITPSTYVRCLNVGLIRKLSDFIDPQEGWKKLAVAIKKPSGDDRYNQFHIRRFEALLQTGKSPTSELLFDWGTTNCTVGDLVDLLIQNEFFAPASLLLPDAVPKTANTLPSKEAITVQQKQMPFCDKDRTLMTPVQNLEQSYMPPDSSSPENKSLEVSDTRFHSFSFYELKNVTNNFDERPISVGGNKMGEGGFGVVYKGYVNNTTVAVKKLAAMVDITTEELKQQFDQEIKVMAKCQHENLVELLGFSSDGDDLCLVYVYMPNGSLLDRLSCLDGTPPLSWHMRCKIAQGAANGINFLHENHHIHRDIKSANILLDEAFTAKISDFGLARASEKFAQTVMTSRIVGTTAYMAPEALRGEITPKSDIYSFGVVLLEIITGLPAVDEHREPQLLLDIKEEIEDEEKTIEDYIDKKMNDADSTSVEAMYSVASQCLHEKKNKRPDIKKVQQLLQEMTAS
The experiment in a line: Assay for inhibitory effect of compound on IRAK4 kinase activity (KinEASE-STK S1 HTRF kit). Format: biochemical. On the procedure: Example 1: Kinase activity assay
Assay for inhibitory effect of compound on IRAK4 kinase activity
The inhibitory effect of the compound on IRAK4 kinase activity was measured using the KinEASE-STK S1 serine/threonine kinase kit (Cisbio). The specific method was as follows: the compound was dissolved in dimethyl sulfoxide and then subjected to 3-fold serial dilution in dimethyl sulfoxide, yielding final test compound concentrations in the reaction system ranging from 5,000 nM to 0.0254 nM. The kinase at a final concentration of 8 nM was added, followed by incubation at rt for 15 minutes. Subsequently, biotinylated STK1 substrate at a final concentration of 400 nM and adenosine triphosphate (ATP) at a final concentration of 80 µM were sequentially added, and the mixture was incubated at 37°C for 90 minutes. Then, the reaction was terminated by adding an anti-phosphoserine/threonine antibody conjugated with a europium cryptate and streptavidin-conjugated XL665 to the reaction system. After incubation at rt for 1 hour, the fluorescence intensity at emission wavelengths of 620 nm and 665 nm for each well was measured using an EnVision microplate reader (PerkinElmer) in HTRF mode. The ratio value was calculated using the formula: Ratio = (665 nm/620 nm)×10^4 The inhibition rate of the compound at each concentration was calculated using the formula: Inhibition% = [1-(Signal sample-Signal min)/(Signal max-Signal min)]×100. Subsequently, the dose-response curve was fitted by nonlinear curve fitting of log concentration versus inhibition rate using Fit Modela (205) in XLfit to give the IC50 value of the compound for inhibition of protein activity.
On the technique in general: Time-resolved FRET reads energy transfer from a long-lived donor to a nearby acceptor.

Assay [2] deals with T1, IRAK4. The experiment in a line: Degradation of IRAK4 in THP1 cells, Western blot. Format: cell-based. Particulars: THP-1 cells, 24 hours of incubation; for DC50: IRAK4 protein by Western blot, read-out: DC50; for Dmax: maximum degradation rate, read-out: Dmax. On the set-up: Degradation of IRAK4 in THP1 by compound; host or cells: THP-1. The procedure, abridged: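 Degradation rate derived from densitometry of IRAK4 bands versus DMSO-treated controls. Read-out: anti-IRAK4 immunoblot (10% gel, 40 μg total protein per lane, BCA-normalised) of lysates from THP1 cells incubated with compound for 24 h.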
(In western blotting, separated proteins are transferred to a membrane and probed.)

The mark [3] stands for this setting: kinase 8 nM, ATP 80 µM, 37°C 90 minutes, read-out: IRAK4 HTRF IC50.

For `CN(C)Cc1ccc(-n2cc(NC(=O)c3cccc(C(F)(F)F)n3)c(C(N)=O)n2)cc1` [Compound A22], the concentration for half-maximal inhibition (IC50) at IRAK4 [1] (setting [3]) was less than 100 nM. The same measure, in the same setting: next, `CN1CCN(c2ccc(-n3cc(NC(=O)c4cccc(C(F)(F)F)n4)c(C(N)=O)n3)cc2)CC1` [Compound A26]: less than 100 nM; `NC(=O)c1nn(-c2ccc(C(=O)N3CCNCC3)cc2)cc1NC(=O)c1cccc(C(F)(F)F)n1` [Compound A16]: less than 100 nM.

Regarding `CC(C)(O)c1nn(C2CCCCC2)cc1NC(=O)c1ccc2cc(C#N)cnn12` [Compound A259, 3-cyano-N-(1-cyclohexyl-3-(2-hydroxypropan-2-yl)-1H-pyrazol-4-yl)pyrrolo[1,2-b]pyridazine-7-carboxamide], the IC50 at IRAK4 [1] (setting [3]) fell in the range of 100 to 1000 nM. `NS(=O)(=O)c1nn(C2CCC2)cc1NC(=O)c1ccn2ncc(-c3ccn[nH]3)c2n1` [Compound A278, N-(1-cyclobutyl-3-sulfonamide-1H-pyrazol-4-yl)-3-(1H-pyrazol-5-yl)pyrazolo[1,5-a]pyrimidine-5-carboxamide] displayed an IC50 at IRAK4 [1] of less than 100 nM. In the case of `NC(=O)c1nc(-c2ccccc2)oc1NC(=O)c1cccc(C(F)(F)F)n1` [Compound A58, 2-Phenyl-5-(6-(trifluoromethyl)picolinamido)oxazole-4-carboxamide], the IC50 at IRAK4 [1] (setting [3]) was more than 1000 nM. Regarding `NC(=O)c1oc(-c2ccccc2)nc1NC(=O)c1cccc(C(F)(F)F)n1` [Compound A57, 2-Phenyl-4-(6-(trifluoromethyl)picolinamido)oxazole-5-carboxamide], the half-maximal inhibitory concentration (IC50) on IRAK4 [1] (setting [3]) is more than 1000 nM. On the same count and under the same terms, the same measure for `NC(=O)c1nn(C2CCC2)cc1NC(=O)c1cnn2ccc(-c3ccn[nH]3)nc12` [Compound A292, N-(3-Carbamoyl-1-cyclobutyl-1H-pyrazol-4-yl)-5-(1H-pyrazol-5-yl)pyrazolo[1,5-a]pyrimidine-3-carboxamide]: less than 100 nM; for `NC(=O)c1nn(-c2ccccc2)cc1NC(=O)c1cccc(-c2cc[nH]n2)n1` [Compound A88]: less than 100 nM; for `CC(F)(F)c1cccc(C(=O)Nc2cn(-c3ccccc3)nc2C(N)=O)n1` [Compound A264]: 100 to 1000 nM.

Consider `O=C(Nc1cn(C2CNC2)nc1C(=O)NC1CC1)c1cccc(-c2ccn[nH]2)n1` [Compound A253, N-(1-(Azetidin-3-yl)-3-(cyclopropylcarbamoyl)-1H-pyrazol-4-yl)-6-(1H-pyrazol-5-yl)picolinamide], for which, at IRAK4 [1] (setting [3]), the half-inhibitory concentration (IC50) was less than 100 nM.

In the case of `NC(=O)c1nn(C2CNC2)cc1NC(=O)c1cccc(C(F)(F)F)n1` [Compound A33], at IRAK4 [1] (setting [3]), the IC50 was 100 to 1000 nM.

For the compound `O=C(Nc1cn(-c2ccccc2)nc1CO)c1cccc(C(F)(F)F)n1` [Compound A74, N-(3-(hydroxymethyl)-1-phenyl-1H-pyrazol-4-yl)-6-(trifluoromethyl)picolinamide], the 50% inhibitory concentration (IC50) on IRAK4 [1] (setting [3]) lay within 100 to 1000 nM.

For `[C-]#[N+]c1cnn2c(C(=O)Nc3cn(-c4ccccc4)nc3OC)ccc2c1` [Compound A234, 3-Isocyano-N-(3-methoxy-1-phenyl-1H-pyrazol-4-yl)pyrrolo[1,2-b]pyridazine-7-carboxamide], the IC50 at IRAK4 [1] (setting [3]) was less than 100 nM. Still for that read-out and setting: next, `O=C(Nc1cn(C2CCC2)nc1C(F)F)c1ccn2ncc(-c3ccn[nH]3)c2n1` [Compound A279, N-(1-cyclobutyl-3-(difluoromethyl)-1H-pyrazol-4-yl)-3-(1H-pyrazol-5-yl)pyrazolo[1,5-a]pyrimidine-5-carboxamide]: 100 to 1000 nM; `N#Cc1cnn2c(C(=O)Nc3cn(-c4ccccc4)nc3C(F)F)ccc2c1` [Compound A233, 3-Cyano-N-(3-(difluoromethyl)-1-phenyl-1H-pyrazol-4-yl)pyrrolo[1,2-b]pyridazine-7-carboxamide]: less than 100 nM; `O=C(Nc1cn(C2CCNCC2)nc1C(=O)NC1CC1)c1cccc(-c2ccn[nH]2)n1` [Compound A256, N-(3-(Cyclopropylcarbamoyl)-1-(piperidin-4-yl)-1H-pyrazol-4-yl)-6-(1H-pyrazol-5-yl)picolinamide]: less than 100 nM. For `COCc1ccc(-n2cc(NC(=O)c3cccc(C(F)(F)F)n3)c(C(N)=O)n2)cc1` [Compound A19], the IC50 at IRAK4 [1] (setting [3]) was less than 100 nM. In the case of `NC(=O)c1nn(-c2ccc(C(=O)N3CC(CNc4ccc5c(c4)C(=O)N(C4CCC(=O)NC4=O)C5=O)C3)cc2)cc1NC(=O)c1cccc(C(F)(F)F)n1` (stereo not shown) [Compound A110], at IRAK4 [1] (setting [3]), the half-inhibitory concentration (IC50) is less than 100 nM. Still for that read-out and setting: next, `O=C(Nc1cn(-c2ccccc2)nc1C(=O)NC1CC1)c1cccc(C(F)(F)F)n1` [Compound A86, N-(3-(cyclopropylcarbamoyl)-1-phenyl-1H-pyrazol-4-yl)-6-(trifluoromethyl)picolinamide]: 100 to 1000 nM.

On to `CC(C)(C)OC(=O)N1CCC(n2cc(NC(=O)c3cccc(C(F)(F)F)n3)c(C(N)=O)n2)CC1` [Compound A1], for which, on IRAK4 [1] (setting [3]), the IC50 fell in the range of 100 to 1000 nM. For the compound `CNC(=O)c1nn(-c2ccccc2)cc1NC(=O)c1cccc(-c2ccn[nH]2)n1` [Compound A246, N-(3-(Methylcarbamoyl)-1-phenyl-1H-pyrazol-4-yl)-6-(1H-pyrazol-5-yl)picolinamide], the concentration for half-maximal inhibition (IC50) on IRAK4 [1] (setting [3]) is less than 100 nM. Same read-out and setting: next, `NC(=O)c1nn(-c2cnc(Br)cn2)cc1NC(=O)c1cccc(C(F)(F)F)n1` [Compound A2]: more than 1000 nM; `NS(=O)(=O)c1nn(-c2ccccc2)cc1NC(=O)c1cccc(C(F)(F)F)n1` [Compound A62, N-(1-phenyl-3-sulfamoyl-1H-pyrazol-4-yl)-6-(trifluoromethyl)picolinamide]: 100 to 1000 nM; `O=C(NC1CC1)c1nn(C2CCC2)cc1NC(=O)c1cnn2ccc(-c3cn[nH]c3)nc12` [Compound A287]: 100 to 1000 nM. The same measure, in the same setting: next, `NC(=O)c1nn(-c2ccccc2)cc1NC(=O)c1cccc(C(F)(F)F)n1` [Compound A5]: less than 100 nM; `N#Cc1cnn2c(C(=O)Nc3cn(C4CCCCC4)nc3C(N)=O)ccc2c1` [Compound A235]: less than 100 nM. In the case of `CC(C)(O)c1nn(-c2ccc(N3CCN(CC4CCN(c5ccc(NC6CCC(=O)NC6=O)cn5)CC4)CC3)cc2)cc1NC(=O)c1cccc(C(F)(F)F)n1` (stereo not shown) [Compound A438, N-(1-(4-(4-((1-(5-((2,6-Dioxopiperidin-3-yl)amino)pyridin-2-yl)piperidin-4-yl)methyl)piperazin-1-yl)phenyl)-3-(2-hydroxypropan-2-yl)-1H-pyrazol-4-yl)-6-(trifluoromethyl)picolinamide formate], at IRAK4 [2], the half-maximal degradation concentration (DC50) was less than 100 nM and the Dmax was more than 60%.

Consider `NC(=O)c1nn([C@H]2CC[C@H](N3CCN(CC4CN(c5ccc(N6CCC(=O)NC6=O)cc5)C4)CC3)CC2)cc1NC(=O)c1cccc(C(F)(F)F)n1` [Compound A403, N-(3-Carbamoyl-1-((1r,4r)-4-(4-((1-(4-(2,4-dioxotetrahydropyrimidin-1(2H)-yl)phenyl)azetidin-3-yl)methyl)piperazin-1-yl)cyclohexyl)-1H-pyrazol-4-yl)-6-(trifluoromethyl)picolinamide], for which, at IRAK4 [2], the 50% degradation concentration (DC50) was less than 100 nM and the greatest degradation seen (Dmax) lay within 40 to 60%.

`Cn1c(=O)n(C2CCC(=O)NC2=O)c2cccc(NCC3CCC4(CC3)CCN(C(=O)c3ccc(-n5cc(NC(=O)c6cccc(-c7ccn[nH]7)n6)c(S(N)(=O)=O)n5)cc3)CC4)c21` (stereo not shown) [Compound A330]: on IRAK4 [2], the 50% degradation concentration (DC50) was less than 100 nM and the Dmax is more than 60%.

`NC(=O)c1nn(C2CCC(N3CCN(CC4CCN(c5ccc(NC6CCC(=O)NC6=O)cc5F)CC4)CC3)CC2)cc1NC(=O)c1cccc(C(F)(F)F)n1` (stereo not shown) [Compound A374]: at IRAK4 [2], the DC50 is less than 100 nM and the maximal degradation (Dmax) is more than 60%.

In the case of `NC(=O)c1nn(-c2ccc(N3CCN(C4CCN(c5ccc(NC6CCC(=O)NC6=O)cc5F)CC4)CC3)cc2)cc1NC(=O)c1cccc(C(F)(F)F)n1` (stereo not shown) [Compound A365, 1-{4-[4-(1-{4-[(2,6-dioxopiperidin-3-yl)amino]-2-fluorophenyl}piperidin-4-yl)piperazin-1-yl]phenyl}-4-({[6-(trifluoromethyl)pyridin-2-yl]carbonyl}amino)pyrazole-3-carboxamide], on IRAK4 [2], the 50% degradation concentration (DC50) is less than 100 nM and the greatest degradation seen (Dmax) is more than 60%.
